We go through 24 molecules from PubChem BioAssay (NCI).

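Exposure lasted 48 hours, with cells grown in 96-well plates and compounds tested at five concentrations. GI50 = concentration required for 50% inhibition of growth. Definition used: TGI = concentration required for complete inhibition of growth.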 A value given as a limit tells only on which side of the number the result lay.

Among the test systems are U251 CNS; SK-MEL-28 melanoma; HOP-92 NSCLC; TK-10 renal; MDA-MB-435; HCT-116 colon; MDA-N; MDA-MB-231 breast; SR leukemia.
What all share (test): inhibition of tumour cell growth, NCI panel, 48 h

With `CN1N=C(c2ccncc2)OC1c1ccccc1F` (stereo unspecified), the TGI in the assay with U251 CNS, with SK-MEL-28 melanoma, with HOP-92 NSCLC, in the assay on TK-10 renal, in the assay with MDA-MB-435 and with HCT-116 colon was greater than 100 µM in each case. The TGI in the assay with MDA-N and with MDA-MB-231 breast was greater than 100 µM throughout.

As to `O=c1c2ccccc2sc2ccccc12`, the TGI with U251 CNS, with SK-MEL-28 melanoma, with HOP-92 NSCLC, in the assay with TK-10 renal, with MDA-MB-435 and in the assay with HCT-116 colon was greater than 100 µM in each case. Besides, the TGI in the assay on MDA-N and in the assay on MDA-MB-231 breast was greater than 100 µM in each case.

Regarding `O=S1(=O)c2cnccc2NC(=NCc2ccccc2)N1c1ccccc1`, the TGI in the assay on U251 CNS, in the assay with SK-MEL-28 melanoma, with HOP-92 NSCLC, in the assay on TK-10 renal, with MDA-MB-435 and in the assay on HCT-116 colon was greater than 100 µM throughout. For the same molecule, the TGI in the assay with SR leukemia is greater than 100 µM.

Regarding `CC1=NNC(=O)C1C1CC(c2c[nH]c3ccccc23)=NN=C1Cl` (stereo unspecified), the TGI in the assay on U251 CNS, with SK-MEL-28 melanoma, in the assay on HOP-92 NSCLC, in the assay on TK-10 renal, in the assay with MDA-MB-435 and with HCT-116 colon was greater than 100 µM in each case. Further, the TGI in the assay with MDA-N and in the assay on MDA-MB-231 breast was greater than 100 µM each time.

For the molecule `COC(=O)[C@H](Cc1ccccc1)NC(=O)N(CCC#N)CCN(C(=O)N[C@@H](Cc1ccccc1)C(=O)OC)c1ccccc1`, the TGI in the assay on SK-MEL-28 melanoma worked out at 33.9 µM; in the assay on HOP-92 NSCLC, 39.4 µM; with TK-10 renal it was 41.6 µM; in the assay with MDA-MB-435, 39.2 µM; in the assay on HCT-116 colon, 82.5 µM; in the assay on MDA-N, 33.8 µM. This molecule also registered a TGI in the assay with MDA-MB-231 breast of 71 µM.

As to `COc1cc([N+](=O)[O-])c(OC)c2c(Nc3ccc(S(=O)(=O)O)c4cc(S(=O)(=O)O)cc(S(=O)(=O)O)c34)cc(C)nc12`, the TGI in the assay with U251 CNS, in the assay with SK-MEL-28 melanoma, with TK-10 renal, in the assay with MDA-MB-435, with HCT-116 colon and in the assay with MDA-N was greater than 100 µM throughout. Besides, in the assay on MDA-MB-231 breast, the TGI is greater than 100 µM.

For the molecule `O=C1C2=Nc3ccccc3C(O)(C(=O)O)N2c2ccccc21` (stereo unspecified), the TGI is greater than 100 µM in the assay with U251 CNS; greater than 100 µM with SK-MEL-28 melanoma; greater than 100 µM with HOP-92 NSCLC; greater than 100 µM in the assay with TK-10 renal; 5.5 µM in the assay on MDA-MB-435; 59.7 µM in the assay on HCT-116 colon. Also, the figures for the TGI in the assay with SR leukemia and in the assay with MDA-MB-231 breast were greater than 100 µM and 35.4 µM, respectively.

For `C/C(=C\CO)CC/C=C(\C)CNc1ccc([N+](=O)[O-])cc1`, the TGI in the assay with U251 CNS was greater than 100 µM; in the assay with SK-MEL-28 melanoma, greater than 100 µM; in the assay with TK-10 renal, 46.7 µM; with MDA-MB-435 it was 84.9 µM; in the assay with HCT-116 colon, greater than 100 µM; with SR leukemia, 27.1 µM. Besides, in the assay on MDA-MB-231 breast, the TGI was greater than 100 µM.

Turning to `Cc1cccc(/C(Br)=C2/OC(=O)c3ccccc32)c1`, the TGI in the assay on U251 CNS, with SK-MEL-28 melanoma, with HOP-92 NSCLC, in the assay with TK-10 renal, in the assay on MDA-MB-435 and with HCT-116 colon was greater than 100 µM throughout. Moreover, the TGI with MDA-N and with SR leukemia was greater than 100 µM in each case.

As to `CC(C)C(N)C(=O)NC(CCC(=O)NCCCCC(N)C(=O)NCCCNc1ccc([N+](=O)[O-])c2[nH]c3ccccc3c(=O)c12)C(N)=O` (stereo unspecified), the TGI in the assay with U251 CNS, in the assay with SK-MEL-28 melanoma, with HOP-92 NSCLC, in the assay on TK-10 renal, with MDA-MB-435 and with HCT-116 colon was greater than 100 µM in each case. This molecule also displayed a TGI in the assay on MDA-MB-231 breast greater than 100 µM.

On to `O=[N+]([O-])c1cc(Cl)ccc1Sc1ccccc1`, for which the TGI in the assay on U251 CNS, in the assay with SK-MEL-28 melanoma, in the assay with HOP-92 NSCLC, with TK-10 renal, in the assay with MDA-MB-435 and in the assay on HCT-116 colon was greater than 100 µM in each case. Moreover, the TGI in the assay with MDA-N and in the assay with MDA-MB-231 breast was greater than 100 µM each time.

In the case of `COP(=O)(OC)C(Nc1ccc(Cc2ccc(NC(c3ccco3)P(=O)(OC)OC)cc2)cc1)c1ccco1` (stereo unspecified), the TGI is 21.4 µM in the assay with U251 CNS; greater than 100 µM with SK-MEL-28 melanoma; 35.1 µM in the assay on HOP-92 NSCLC; 29.3 µM with TK-10 renal; greater than 100 µM in the assay with MDA-MB-435; greater than 100 µM in the assay with HCT-116 colon. Also, the TGI with MDA-N was greater than 100 µM; in the assay with MDA-MB-231 breast, 41.4 µM.

For `CCOC(=O)C1=CC(C)(C(=O)OCC)Nc2c(nc(N)[nH]c2=O)N1` (stereo unspecified), the TGI in the assay on U251 CNS, in the assay with SK-MEL-28 melanoma, in the assay with HOP-92 NSCLC, in the assay with TK-10 renal, in the assay with MDA-MB-435 and with HCT-116 colon was greater than 10 µM in each case. The TGI in the assay on MDA-N and in the assay on MDA-MB-231 breast was greater than 10 µM throughout.

As to `CCN1C(=O)C(=C/C=C/c2ccc(N(CC)CC)cc2)C(=O)N(CC)C1=S`, the TGI in the assay on U251 CNS, in the assay on SK-MEL-28 melanoma, in the assay on HOP-92 NSCLC, with TK-10 renal, in the assay on MDA-MB-435 and with HCT-116 colon was greater than 100 µM each time. Moreover, the TGI with MDA-N and with MDA-MB-231 breast was greater than 100 µM throughout.

For `COc1ccc2c(c1)c(=O)c1c(NCCNCCO)ccc3c(=O)n(CCN(C)C)c(=O)n2c31`, the TGI in the assay on U251 CNS was 0.937 µM; in the assay on SK-MEL-28 melanoma, 1.34 µM; in the assay on HOP-92 NSCLC, 0.775 µM; with TK-10 renal, 4.53 µM; in the assay on MDA-MB-435, 0.305 µM; in the assay on HCT-116 colon it was 0.348 µM. Besides, the TGI turned out to be 0.279 µM with MDA-N and 0.508 µM in the assay on MDA-MB-231 breast.

With `COc1ccc(-n2nc(C)c3c(Nc4ccc(NC(=O)Nc5ccc(Cl)c(C(F)(F)F)c5)cc4)ncnc32)cc1`, the GI50 was 1150 nM with U251 CNS; 1800 nM with SK-MEL-28 melanoma; 1.81 µM in the assay on HOP-92 NSCLC; 2880 nM with TK-10 renal; 1920 nM in the assay on MDA-MB-435; 1.21 µM with HCT-116 colon. Further, in the assay on MDA-MB-231 breast, the GI50 was 1470 nM. Further, the TGI was found to be 3.08 µM in the assay on U251 CNS; 3.98 µM with SK-MEL-28 melanoma; 5.2 µM with HOP-92 NSCLC; 12.3 µM in the assay on TK-10 renal; 4.17 µM with MDA-MB-435; 3.35 µM in the assay with HCT-116 colon. The molecule further had a TGI in the assay with MDA-MB-231 breast of 3.32 µM.

Turning to `c1ccc(C2CC(=NC3CCCCC3)Nc3ccccc3N2)cc1` (stereo unspecified), the TGI in the assay on U251 CNS, with SK-MEL-28 melanoma, with TK-10 renal, with MDA-MB-435, in the assay on HCT-116 colon and in the assay on MDA-N was greater than 100 µM each time. The same molecule gave a TGI in the assay on MDA-MB-231 breast greater than 100 µM.

As for `COc1ccc(NC(C)c2ccncc2)cc1` (stereo unspecified), the TGI with U251 CNS, in the assay on SK-MEL-28 melanoma, in the assay on HOP-92 NSCLC, in the assay with TK-10 renal, in the assay on MDA-MB-435 and with HCT-116 colon was greater than 100 µM in each case. Also, the TGI with MDA-N and in the assay with MDA-MB-231 breast was greater than 100 µM each time.

Turning to `O=C1C=CC(=O)C(CNc2ccc(C(=O)OCc3ccccc3)cc2)=C1`, the TGI in the assay on U251 CNS amounted to 19.9 µM; with SK-MEL-28 melanoma it was 17.4 µM; in the assay on HOP-92 NSCLC, 3.8 µM; in the assay on TK-10 renal, 14.9 µM; in the assay with MDA-MB-435, 18.7 µM; in the assay with HCT-116 colon, 18.2 µM. Moreover, the TGI in the assay on MDA-N is 19.5 µM; in the assay with MDA-MB-231 breast, 24.9 µM.

`CCOP(=O)(OCC)OC1CC(n2cc(C)c(=O)n(C)c2=O)OC1CO[Si](C)(C)C(C)(C)C` (stereo unspecified): the TGI in the assay on U251 CNS, in the assay on SK-MEL-28 melanoma, with TK-10 renal, in the assay with MDA-MB-435, in the assay on HCT-116 colon and in the assay on MDA-N was greater than 100 µM in each case. In the assay with SR leukemia, this molecule returned a TGI greater than 100 µM.

Take `COc1cccc2c1OCC1Cc3ccccc3OC21` (stereo unspecified): the TGI in the assay with U251 CNS is greater than 100 µM; with TK-10 renal, 72.8 µM; in the assay with MDA-MB-435, 75.3 µM; in the assay with HCT-116 colon it was greater than 100 µM; with MDA-N, 64.8 µM; with SR leukemia, greater than 100 µM. The same molecule gave a TGI in the assay with MDA-MB-231 breast greater than 100 µM.

Take `C(=C\c1ccccc1)/COc1ccccc1C(N1CCOCC1)n1nc2ccccc2n1` (stereo unspecified): the TGI is 17.6 µM in the assay with U251 CNS; 32.7 µM in the assay with SK-MEL-28 melanoma; 21.9 µM in the assay on HOP-92 NSCLC; 32.4 µM in the assay with TK-10 renal; 1.9 µM in the assay with MDA-MB-435; 22.8 µM with HCT-116 colon. The figures for the TGI in the assay on SR leukemia and with MDA-MB-231 breast were 5.49 µM and 15 µM, respectively.

Consider `Nc1ccc(-c2nn3c(COc4ccc(Cl)cc4)nnc3s2)cc1`, for which the TGI with U251 CNS, with SK-MEL-28 melanoma, in the assay on HOP-92 NSCLC, in the assay on TK-10 renal, in the assay with MDA-MB-435 and with HCT-116 colon was greater than 100 µM in each case. Moreover, in the assay with MDA-MB-231 breast, the TGI was greater than 100 µM. The values for the GI50 with HOP-92 NSCLC and in the assay with HCT-116 colon were 98 µM and 34.8 µM, respectively.

As for `O=[N+]([O-])c1ccc2c(c1)c(N=NC(=S)Nc1ccc(Cl)cc1)c(O)n2CN1CCOCC1`, the TGI in the assay on U251 CNS was 20.1 µM; in the assay with SK-MEL-28 melanoma, 26.6 µM; in the assay with HOP-92 NSCLC, 21.2 µM; with TK-10 renal, 24.5 µM; in the assay on MDA-MB-435, 19.2 µM; in the assay with HCT-116 colon, 15.7 µM. Also, the TGI amounted to 8.44 µM in the assay on SR leukemia and 30.6 µM in the assay on MDA-MB-231 breast.
